Measurements reported in patent US12673942B2, “Azabicyclyl-substituted heterocycles as fungicides” (Bayer Aktiengesellschaft, priority 2020, dated 2026).

Columns and labels:
[1] = Measurement of Log P values by HPLC on reversed phase columns (EEC directive 79/831 Annex V.A8); type: physicochemical; details: method [a]: LC-UV, acidic range, 0.1% formic acid in water and acetonitrile as eluent
Experimental: Measurement of Log P values as provided herein was performed according to EEC directive 79/831 Annex V.A8 by HPLC (High Performance Liquid Chromatography) on reversed phase columns with the following methods: • ^[a] Log P value is determined by measurement of LC-UV, in an acidic range, with 0.1% formic acid in water and acetonitrile as eluent (linear gradient from 10% acetonitrile to 95% acetonitrile). • ^[b] Log P value is determined by measurement of LC-UV, in a neutral range, with 0.001 molar ammonium acetate solution in water and acetonitrile as eluent (linear gradient from 10% acetonitrile to 95% acetonitrile). • ^[c] Log P value is determined by measurement of LC-UV, in an acidic range, with 0.1% phosphoric acid and acetonitrile as eluent (linear gradient from 10% acetonitrile to 95% acetonitrile).
If more than one Log P value is available within the same method, all the values are given and separated by “+”. […]

Alternaria alternata = Alternaria alternata in vitro cell test; type: cell-based; details: 120 h, 20 ppm of active ingredient, liquid culture, 5 days incubation, read-out: efficacy (inhibition of fungal growth)
Experimental: (§1) • Solvent: […] Fungicides were solubilized in DMSO and the solution used to prepare the required range of concentrations. The final concentration of DMSO used in the assay was ≤1%. A spore suspension of Alternaria alternata was prepared and diluted to the desired spore density. Fungicides were evaluated for their ability to inhibit spore germination and mycelium growth in liquid culture assay. The compounds were added in the desired concentration to the culture medium with spores. After 5 days incubation, fungi-toxicity of compounds was determined by spectrometric measurement of mycelium growth. Inhibition of fungal growth was determined by comparing the absorbance values in wells containing the fungicides with the absorbance in control wells without fungicides.

Fusarium culmorum = Fusarium culmorum in vitro cell test; type: cell-based; details: 96 h, 20 ppm of active ingredient, liquid culture, 4 days incubation, read-out: efficacy (inhibition of fungal growth)
Experimental: • Solvent: DMSO • Culture medium: 14.6 g anhydrous D-glucose (VWR), 7.1 g Mycological Peptone (Oxoid), 1.4 g granulated Yeast Extract (Merck), QSP 1 liter • Inoculum: spore suspension
Fungicides were solubilized in DMSO and the solution used to prepare the required range of concentrations. The final concentration of DMSO used in the assay was ≤1%.
A spore suspension of Fusarium culmorum was prepared and diluted to the desired spore density.
Fungicides were evaluated for their ability to inhibit spore germination and mycelium growth in liquid culture assay. The compounds were added in the desired concentration to the culture medium with spores. After 4 days incubation, fungi-toxicity of compounds was determined by spectrometric measurement of mycelium growth. Inhibition of fungal growth was determined by comparing the absorbance values in wells containing the fungicides with the absorbance in control wells without fungicides.

Pyricularia oryzae = test: microbe, parasite or virus in culture; type: cell-based; details: 120 h, read-out: efficacy (inhibition of fungal growth)
[2] = system: Colletotrichum lindemuthianum; test: Colletotrichum lindemuthianum in vitro cell test; type: cell-based; details: 144 h, 20 ppm of active ingredient, liquid culture, 6 days incubation, read-out: efficacy (inhibition of fungal growth)
Experimental: as §1, with “1%.” for “≤1%.”, “Colletotrichum lindemuthianum” for “Alternaria alternata”, “6” for “5”

Septoria tritici = Septoria tritici in vitro cell test; type: cell-based; details: Zymoseptoria tritici, 168 h; 20 ppm of active ingredient; liquid culture, 7 days incubation; read-out: efficacy (inhibition of fungal growth)
Experimental: • Solvent: DMSO • Culture medium: 1 g KH2PO4 (VWR), 1 g K2HPO4 (VWR), 0.5 g Urea (VWR), 3 g KNO3 (Prolabo), 10 g saccharose (VWR), 0.5 g MgSO4, 7H2O (Sigma), 0.07 g CaCl2, 2H2O (Prolabo), 0.2 mg MnSO4, H2O (Sigma), 0.6 mg CuSO4, 5H2O (Sigma), 7.9 mg ZnSO4, 7H2O (Sigma), 0.1 mg H3BO3 (Merck), 0.14 mg NaMoO4, 2H2O (Sigma), 2 mg thiamine (Sigma), 0.1 mg biotine (VWR), 4 mg FeSO4, 7H2O (Sigma), QSP 1 liter • Inoculum: spore suspension Fungicides were solubilized in DMSO and the solution used to prepare the required range of concentrations. The final concentration of DMSO used in the assay was 1%. A spore suspension of Septoria tritici was prepared and diluted to the desired spore density. Fungicides were evaluated for their ability to inhibit spore germination and mycelium growth in liquid culture assay. The compounds were added in the desired concentration to the culture medium with spores. […] Inhibition of fungal growth was determined by comparing the absorbance values in wells containing the fungicides with the absorbance in control wells without fungicides.

| Compound | chromatographic logP [1] | inhibition at 20 ppm (Alternaria alternata) [%] | inhibition at 20 ppm (Fusarium culmorum) [%] | inhibition at 20 ppm (Pyricularia oryzae) [%] | inhibition at 20 ppm [2] [%] | inhibition at 20 ppm (Septoria tritici) [%] |
| --- | --- | --- | --- | --- | --- | --- |
| Cc1ccc(C[C@@H]2CON=C(c3c(Oc4cccc(Br)c4F)cnc4ccccc34)N2)c(C)c1 (racemic) [Compound I-019] | 4.33 | ≥ 70 | ≥ 70 | ≥ 70 | ≥ 70 | ≥ 70 |
| Cc1ccc(C[C@@H]2CON=C(c3c(Oc4cccc(C5CC5)c4F)cnc4nccnc34)N2)c(C)c1 (racemic) [Compound I-014] | 3.5 | ≥ 70 | ≥ 70 | – | ≥ 70 | ≥ 70 |
| C=Cc1cccc(Oc2cnc3ccccc3c2C2=NOC[C@@H](Cc3ccc(C)cc3C)N2)c1 (racemic) [Compound I-018] | 4.23 | ≥ 70 | ≥ 70 | ≥ 70 | ≥ 70 | ≥ 70 |
| C=Cc1ccc(C[C@@H]2CON=C(c3c(Oc4cccc(C(F)(F)F)c4)nnc4ccccc34)N2)c(Cl)c1 (racemic) [Compound I-009] | 4.44 | ≥ 70 | ≥ 70 | ≥ 70 | ≥ 70 | ≥ 70 |
| Cc1ccc(C[C@@H]2CON=C(c3c(Oc4cccc(C5CC5)c4F)cnc4ccccc34)N2)c(C)c1 (racemic) [Compound I-017] | 4.51 | ≥ 70 | ≥ 70 | ≥ 70 | ≥ 70 | ≥ 70 |
| Cc1ccc(CC2CON=C(c3c(Oc4cccc(C5CC5)c4F)nnc4ccccc34)N2)c(C)c1 (racemic) [Compound I-006, 3-(3-cyclopropyl-2-fluorophenoxy)-4-[(5RS)-5-(2,4-dimethylbenzyl)-5,6-dihydro-4H-1,2,4-oxadiazin-3-yl]cinnoline] | 4.37 | ≥ 70 | ≥ 70 | ≥ 70 | ≥ 70 | ≥ 70 |
| C#Cc1cccc(Oc2cnc3ccccc3c2C2=NOC[C@@H](Cc3ccc(C)cc3C)N2)c1 (racemic) [Compound I-016] | 4.05 | ≥ 70 | ≥ 70 | ≥ 70 | ≥ 70 | ≥ 70 |
| FC(F)(F)c1cccc(Oc2nnc3ccccc3c2C2=NOC[C@@H](Cc3ccc(Br)cc3Cl)N2)c1 (racemic) [Compound I-007] | 4.44 | ≥ 70 | ≥ 70 | ≥ 70 | ≥ 70 | ≥ 70 |
| Cc1ccc(C[C@@H]2CON=C(c3c(Oc4cccc(C(F)(F)F)c4)cnc4ccoc34)N2)c(C)c1 (racemic) [Compound I-013] | 3.96 | ≥ 70 | ≥ 70 | ≥ 70 | ≥ 70 | ≥ 70 |
| FC(F)(F)c1cccc(Oc2cnc3ccccc3c2C2=NC[C@@H](Cc3ccc(Cl)cc3)N2)c1 (racemic) [Compound I-015] | 2.46 | ≥ 70 | ≥ 70 | ≥ 70 | ≥ 70 | ≥ 70 |
